# Experimental data taken from patent US5861480A, “Antimicrobial proteins from aralia and impatiens” (Zeneca Limited, priority 1994, dated 1999).
# Legend:
# Assay type in all cases: cell-based
# [1] = tested on: Fusarium culmorum IMI 180420; assay: Antifungal activity assay (microspectrophotometry), F culmorum; details: 48 h
# Trichoderma viride K1127 = assay: Antifungal activity assay (microspectrophotometry), T viride; details: 48 h
# plant pathogenic fungi = assay: Antifungal potency on different plant pathogenic fungi (summary over the panel); details: high salt medium (medium B)
# [2] = tested on: Verticillium albo-atrum K0937; assay: Antifungal activity assay (microspectrophotometry), V albo-atrum; details: 48 h
# [3] = tested on: Botrytis cinerea MUCL 30158; assay: Antifungal activity assay (microspectrophotometry), B cinerea; details: 48 h
# [4] = tested on: A longipes (Alternaria lonaives CBS62083); assay: Antifungal activity assay (microspectrophotometry), A longipes; details: 48 h
# [5] = tested on: C sphaerospermum (Cladosnorium sphaerospermum KO791); assay: Antifungal activity assay (microspectrophotometry), C sphaerospermum; details: 48 h
# [6] = tested on: P digitatum (Penicillium dipitatum (K0879)); assay: Antifungal activity assay (microspectrophotometry), P digitatum; details: 48 h
# [7] = tested on: Septoria tritici (K1097D); assay: Antifungal activity assay (microspectrophotometry), S tritici; details: 48 h
# [8] = tested on: Cercospora beticola strain K897; assay: Antifungal activity assay (microspectrophotometry), C beticola; details: Medium A (1/2 PDB), 48 h
# [9] = tested on: C graminicola (Colletotrichum Qraminicola CG-17); assay: Antifungal activity assay (microspectrophotometry), C graminicola; details: Medium A (1/2 PDB), 48 h
# [10] = tested on: Escherichia coli strain HB101; assay: Antibacterial activity assay (microspectrophotometry), E coli; details: bacterial suspension in soft nutrient agarose, 24 hours at 28° C.
# [11] = tested on: F graminearum (Fusarium craminearum FR-12); details: Medium A (1/2 PDB), 48 h
# [12] = tested on: Bacillus megaterium ATCC 13632; assay: Antibacterial activity assay (microspectrophotometry), B megaterium; details: bacterial suspension in soft nutrient agarose, 24 hours at 28° C.
# [13] = tested on: Saccharomyces cerevisiae JRY188; assay: Anti-yeast activity assay, S cerevisiae
# [14] = tested on: Fusarium moniliforme FM-9; assay: Antifungal activity assay (microspectrophotometry), F moniliforme; details: Medium A (1/2 PDB), 48 h
# Stenocarpella maydis = assay: Antifungal activity assay (microspectrophotometry), S maydis; details: Medium A (1/2 PDB), 48 h
# [15] = tested on: Verticillium dahliae MUCL 19210; assay: Antifungal activity assay (microspectrophotometry), V dahliae; details: Medium A (1/2 PDB), 48 h
# [16] = tested on: Sphacelotheca reiliana HS; assay: Antifungal activity assay (microspectrophotometry), S reiliana; details: Medium A (1/2 PDB), 48 h
# [17] = tested on: B maydis (Bipolaris mavdis HM-10); assay: Antifungal activity assay (microspectrophotometry), B maydis; details: Medium A (1/2 PDB), 48 h
# Candida albicans KA-1 = assay: Anti-yeast activity assay, C albicans
# [18] = Medium B (1/2 PDB + 1 mM CaCl2 and 50 mM KCl)
Substance,IC50 (growth inhibition) F culmorum ([1]; Medium A (1/2 PDB)) [µg/mL],"IC50 (growth inhibition) F culmorum [1, 18] [µg/mL]",IC50 (growth inhibition) T viride (Trichoderma viride K1127; Medium A (1/2 PDB)) [µg/mL],IC50 (growth inhibition) T viride (Trichoderma viride K1127; [18]) [µg/mL],IC50 (growth inhibition) V albo-atrum ([2]; Medium A (1/2 PDB)) [µg/mL],"IC50 (growth inhibition) V albo-atrum [2, 18] [µg/mL]",IC50 (growth inhibition) B cinerea ([3]; Medium A (1/2 PDB)) [µg/mL],"IC50 (growth inhibition) B cinerea [3, 18] [µg/mL]",IC50 (growth inhibition) A longipes ([4]; Medium A (1/2 PDB)) [µg/mL],"IC50 (growth inhibition) A longipes [4, 18] [µg/mL]",IC50 (growth inhibition) C sphaerospermum ([5]; Medium A (1/2 PDB)) [µg/mL],"IC50 (growth inhibition) C sphaerospermum [5, 18] [µg/mL]",IC50 (growth inhibition) P digitatum ([6]; Medium A (1/2 PDB)) [µg/mL],"IC50 (growth inhibition) P digitatum [6, 18] [µg/mL]",IC50 (growth inhibition) S tritici ([7]; Medium A (1/2 PDB)) [µg/mL],"IC50 (growth inhibition) S tritici [7, 18] [µg/mL]",IC50 (growth inhibition) C beticola [8] [µg/mL],also measured
"Ib-AMP4: Impatiens balsamina antimicrobial protein 4, purified from I balsamina seeds; amino acid sequence SEQ ID NO 13 (QWGRRCCGWGPGRRYCRRWC)",1,6,6,150,6,50,6,200,3,12,1,6,3,25,1,12,–,antifungal activity in high salt medium (in words) (plant pathogenic fungi): fairly strong activity
"Ib-AMP2: Impatiens balsamina antimicrobial protein 2, purified from I balsamina seeds; amino acid sequence SEQ ID NO 11 (QYGRRCCNWGPGRRYCKRWC)",6,> 200,12,> 200,12,> 200,25,> 200,12,> 200,6,> 200,6,> 200,–,–,3,–
"Ib-AMP1: Impatiens balsamina antimicrobial protein 1, purified from I balsamina seeds; amino acid sequence SEQ ID NO 10 (QWGRRCCGWGPGRRYCVRWC)",1.5,50,6,> 200,3,> 200,12,> 200,3,50,1.5,50,3,200,1,50,1.5,IC50 (growth inhibition) C graminicola [9]: 2 µg/mL; IC50 (growth inhibition) E coli [10]: > 800 µg/mL; IC50 (growth inhibition) F graminearum [11]: 3 µg/mL; IC50 (growth inhibition) B megaterium [12]: 10 µg/mL; IC50 (growth inhibition) S cerevisiae [13]: 20 µg/mL; IC50 (growth inhibition) F moniliforme [14]: 20 µg/mL; IC50 (growth inhibition) S maydis (Stenocarpella maydis): 5 µg/mL; IC50 (growth inhibition) V dahliae [15]: 1 µg/mL; IC50 (growth inhibition) S reiliana [16]: 4 µg/mL; IC50 (growth inhibition) B maydis [17]: 7 µg/mL; IC50 (growth inhibition) C albicans (Candida albicans KA-1): 10 µg/mL; effect on the growth of C. albicans (in words) (Candida albicans KA-1): strongly inhibitied
"Ib-AMP3: Impatiens balsamina antimicrobial protein 3, purified from I balsamina seeds; amino acid sequence SEQ ID NO 12 (QYRHRCCAWGPGRKYCKRWC)",6,100,12,> 200,6,> 200,6,> 200,6,> 200,3,100,3,100,–,–,–,–
